Results on six compounds are retold here after patent US20230114674A1, “ISOINDOLINE DERIVATIVE, AND PHARMACEUTICAL COMPOSITION AND USE THEREOF” (KANGPU BIOPHARMACEUTICALS, LTD., priority 2020, published 2023).

The structures appear in SMILES notation.

One assay deals with MM.1S myeloma cells. Nature of the assay: Cell proliferation inhibition test by CTG (CellTiter-Glo) assay. Type of assay: cell-based. As to conditions: Homo sapiens, MM1.S, 120 hours drug treatment, 4,000 cells/well, 384-well plate, read-out: MM.2S IC50. As for the experimental part: Experimental Method for Cell Proliferation Inhibition Test by CTG Assay:
The proliferation inhibitory activity of the compounds in the MM.1S myeloma cell model was determined by CellTiter-Glo (CTG) Luminescent Cell Viability Assay (Promega). MM.1S cells (ATCC, Cat #CRL-2974) at exponential phase were resuspended in RPMI-1640 (Gibco, Cat #11875-093)+10% FBS+1% penicillin/streptomycin+2 mM Glutamax medium and counted using an automated cell counter (ViCellXR). According to the optimized cell plating density in the pre-experiments, 40 μl of cell suspension at a density of 100,000 cells/ml was plated in the corresponding wells of a 384-well plate (4,000 cells/well) to ensure that cells in the control group were at linear growth phase within the five-day experimental period. The plated 384-well plate was cultured in a 37° C., 5% CO2 incubator for 24 hours. On the day of administration, each compound was formulated into 10 mM stock solution with DMSO (Sigma, Cat #276855-1L) and the stock solution was further diluted with DMSO to 20 μM and 20 nM working solutions. Drug treatment of MM.1S cells started at a concentration of up to 100 nM and the drug was serial diluted 4-fold with 10 points, with three replicate wells. Nanoliter volumes of compound solutions were added to the corresponding wells of the 384-well plate according to the needed concentration in a non-contact spraying manner by an HPD300 microscale automated dispenser (Tecan). The final concentration of DMSO was 0.5%. After drug addition, the 384-well plate was cultured in a 37° C., 5% CO2 incubator for 120 hours. After five days of drug treatment, 25 μl of CTG reagent (Promega, Cat #G7573) was added to each well, and the plate was shaken on a plate shaker for 10 minutes to ensure that the cells were fully lysed, and then left to stand at room temperature for 10 minutes to ensure a sufficient reaction of CTG with the substrate and the generation of a stable luminescent signal. The signal is proportional to the amount of ATP in the cell lysate, i.e., the number of metabolically active cells. Chemiluminescence of the cells in the plate was detected by an EnSpire instrument. The reading of the cells at Day 0 was used as a control for cells at growth starting point and the reading of cells with 0.5% DMSO at Day 5 was used as a control for cells under growth. Cell proliferation inhibition curve was plotted using XLFit software and the IC50 value was calculated. Experiment results can be seen in Table 2.
On the technique in general: ATP-based viability assays read luminescence as a measure of living cells.
In the case of `COc1c(C#N)ccc(N2CCN(Cc3ccc(COc4cccc5c4CN([C@H]4CCC(=O)NC4=O)C5=O)c(F)c3)CC2)c1F` [CM-49], the half-maximal inhibitory concentration (IC50) was 0.0606 nM.

As for `Nc1cccc2c1CN(C1CCC(=O)NC1=O)C2=O` (stereo not shown) [Control 1, reference compound], the 50% inhibitory concentration (IC50) was 119 nM.

Regarding `N#Cc1ccc(N2CCN(Cc3ccc(COc4cccc5c4CN([C@H]4CCC(=O)NC4=O)C5=O)c(F)c3)CC2)c(F)c1Cl` [CM-48], the concentration for half-maximal inhibition (IC50) was 0.0365 nM.

In the case of `N#Cc1ccc(N2CCN(Cc3ccc(COc4cccc5c4CN([C@H]4CCC(=O)NC4=O)C5=O)c(F)c3)CC2)c(F)c1C(F)(F)F` [CM-47], the half-maximal inhibitory concentration (IC50) was 0.135 nM.

With `CCOc1cc(N2CCN(Cc3ccc(COc4cccc5c4CN([C@H]4CCC(=O)NC4=O)C5=O)cc3F)CC2)ccc1C#N` [CM-46], the half-maximal inhibitory concentration (IC50) came to 0.0687 nM.

Regarding `CNC(=O)c1ccc(N2CCN(Cc3ccc(COc4cccc5c4CN([C@H]4CCC(=O)NC4=O)C5=O)cc3F)CC2)cc1F` [CM-45], the IC50 came to 0.0938 nM.

Another assay concerns MM.1S myeloma cells. The assay can be described thus: Cell proliferation inhibition test by MTS assay. The assay is classed as cell-based. To be noted: Homo sapiens, MM1.S, 72 hours drug treatment, 15,000 cells/well, 96-well plate. As for the experimental part: Experimental Method for Cell Proliferation Inhibition Test by MTS Assay:
Proliferating MM.1S myeloma cells (ATCC, Cat #CRL-2974) were resuspended in RPMI-640 medium (Gibco, Cat #A10491-01) and counted using an automated cell counter. The cell suspension was diluted to the needed density and 100 μl (15,000 cells) of the cell suspension was plated per well in a 96-well plate. The plate was cultured in a 37° C., 5% CO2 incubator for 24 hours. On the day of administration, each compound was formulated into 20 mM stock solution with DMSO (Sigma, Cat #D2650), diluted with a medium to the needed concentration, and then added to the corresponding wells for the cell proliferation inhibition test with a drug of 4-fold serial dilution with 10 points. The final concentration of DMSO was 0.5%. After drug addition, the 96-well plate was cultured in a 37° C., 5% CO2 incubator for 72 hours. Then, 20 μl of MTS (Promega, Cat #G3581) was added to each well and the plate was cultured for 2 hours in a 37° C., 5% CO2 incubator, and then the absorbance at 490 nm of each well was recorded using an Ensight instrument. The reading of the cells at Day 0 was used as a negative control and the reading of cells with 0.5% DMSO at Day-3 was used as a positive control. Cell proliferation inhibition curve was plotted using GraphPad Prism 5 software and the IC50 value was calculated. Experiment results can be seen in Table 1.
(In general: Tetrazolium assays rely on reduction of a dye to a coloured formazan, in cell work by metabolically active cells.)
`Nc1cccc2c1CN(C1CCC(=O)NC1=O)C2=O` (stereo not shown) [Control 1, reference compound] showed an IC50 of 23.1 nM.

One may read the IC50 as the midpoint of a concentration-inhibition curve.
